Data as given in ChEMBL document CHEMBL5131572, “Identification of a Potent, Selective, and Brain-Penetrant Rho Kinase Inhibitor and its Activity in a Mouse Model of Huntington's Disease” (J Med Chem, 2022).
In brackets after ≈: the same amount, converted by molar mass.

Key:
Mus musculus [1] = experiment: In vivo inhibition of ROCK in po dosed HTT zQ175DN Knock-in mouse assessed as reduction in MYPT1 phosphorylation in striatum after 1 hr by MSD assay; format: functional, organism-based; conditions: dose 1-20 mg/kg, DDE = dose-dependent effect
[2] = biological target: Rho-associated protein kinase 2 (Homo sapiens, UniProt O75116); experiment: Inhibition of recombinant N-terminal GST-tagged human ROCK2 (5 to 554 residues) expressed in baculovirus infected Sf9 cells using S6K as substrate incubated for 30 mins in presence of ATP by ADP Glo kinase assay
Mus musculus [3] = experiment: In vivo inhibition of ROCK in HTT zQ175DN Knock-in mouse assessed as reduction in MYPT1 phosphorylation in striatum at 10 mg/kg, po by MSD assay; format: functional, organism-based; conditions: time 1-8 hrs, TDE = time-dependent effect
[4] = biological target: T1, cGMP-dependent protein kinase 1 (Homo sapiens, UniProt Q13976); experiment: Inhibition of full length recombinant N-terminal GST-tagged human PKG expressed in baculovirus infected Sf9 insect cells using RSK as substrate preincubated for 15 mins followed by substrate addition and measured after 30 mins in presence of ATP by ADP Glo kinase assay
T1 sequence (Q13976 whole entry): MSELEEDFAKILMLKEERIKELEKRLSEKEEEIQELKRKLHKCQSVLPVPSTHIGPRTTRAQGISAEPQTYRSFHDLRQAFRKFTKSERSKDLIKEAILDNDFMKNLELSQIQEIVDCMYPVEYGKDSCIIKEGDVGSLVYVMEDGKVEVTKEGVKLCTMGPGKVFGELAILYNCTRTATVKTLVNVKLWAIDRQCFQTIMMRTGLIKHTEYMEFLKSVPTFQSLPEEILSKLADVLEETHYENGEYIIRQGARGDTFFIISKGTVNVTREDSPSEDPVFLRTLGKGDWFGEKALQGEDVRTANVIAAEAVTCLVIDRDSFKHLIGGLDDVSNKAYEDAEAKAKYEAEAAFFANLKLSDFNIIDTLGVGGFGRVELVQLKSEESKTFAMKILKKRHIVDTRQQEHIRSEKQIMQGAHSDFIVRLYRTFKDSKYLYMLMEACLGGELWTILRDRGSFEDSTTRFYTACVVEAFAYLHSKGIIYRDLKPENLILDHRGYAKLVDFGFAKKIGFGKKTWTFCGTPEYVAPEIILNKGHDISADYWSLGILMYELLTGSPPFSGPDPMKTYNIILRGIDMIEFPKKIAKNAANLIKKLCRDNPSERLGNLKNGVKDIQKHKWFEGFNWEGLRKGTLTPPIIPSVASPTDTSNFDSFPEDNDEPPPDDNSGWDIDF

[5] = Inhibition of ROCK in rat A7R5 cells assessed as increase in AKT phosphorylation measured after 30 mins by alphaLISA Surefire multiplex assay; format: cell-based; conditions: A7R5, 0.5 h
[6] = Inhibition of ROCK in human PANC-1 cells assessed as decrease in MYPT1 phosphorylation at T850 residues measured after 1 hr by Western blot analysis; format: cell-based; conditions: PANC-1, 1 h
Mus musculus [7] = experiment: Antihypertensive activity in CD1 mouse assessed as decrease in body temperature at 10 to 20 mg/kg, po measured after 0.5 to 4 hrs; format: functional; conditions: dose 10-20 mg/kg, time 0.5-4 hrs
[8] = Inhibition of ROCK in rat A7R5 cells assessed as cofilin serine 3 phosphorylation incubated for 1 hr by ICW assay; conditions: A7R5, 1 h
Mus musculus [9] = experiment: Antihypertensive activity in CD1 mouse assessed as decrease in systolic blood pressure at 10 to 20 mg/kg, po measured after 0.5 to 2 hrs; format: functional; conditions: dose 10-20 mg/kg, time 0.5-2 hrs
Mus musculus [10] = experiment: Antihypertensive activity in CD1 mouse assessed as decrease in mean arterial pressure at 10 to 20 mg/kg, po measured after 0.5 to 2 hrs; format: functional; conditions: dose 10-20 mg/kg, time 0.5-2 hrs
LIM domain kinase 2 = LIM domain kinase 2 (Homo sapiens, UniProt P53671); experiment: Inhibition of wild-type human full length LIMK2 (M1 to P638 residues) expressed in bacterial expression system by Kinomescan method
Mus musculus [11] = experiment: Antihypertensive activity in CD1 mouse assessed as decrease in heart rate pressure at 10 to 20 mg/kg, po measured after 0.5 to 2 hrs; conditions: dose 10-20 mg/kg, time 0.5-2 hrs
Mus musculus [12] = experiment: Antihypertensive activity in CD1 mouse assessed as decrease in diastolic blood pressure at 10 to 20 mg/kg, po measured after 0.5 to 2 hrs; format: functional; conditions: dose 10-20 mg/kg, time 0.5-2 hrs
[13] = Metabolic stability in mouse liver microsomes assessed as intrinsic clearance at 1 uM measured upto 40 mins in presence of NADPH by LC-MS/MS analysis; format: ADME, Microsome; conditions: read-out: CLH
[14] = Distribution coefficient, logD of compound by chromatographic method; format: physicochemical; conditions: octanol/water
[15] = Apparent permeability in MDCK-MDR1 cells at 10 uM after 1 hr by LC-MS/MS analysis; format: ADME, cell-based, Canis lupus familiaris; conditions: dog
[16] = Lipophilicity, logP of compound; format: physicochemical; conditions: octanol/water
[17] = Kinetic solubility of the compound in pH 7.4 PBS buffer incubated for 2 hrs using orbital shaker by LC-UV mass spectrometry; format: physicochemical; conditions: read-out: Kinetic_solubility
MDR1 = experiment: in vitro; conditions: dog, MDCK-MDR1
Description: Efflux ratio of apparent permeability across basolateral to apical side to apical to basolateral side in MDCK-MDR1 cells at 10 uM measured after 1 hr by LC-MS/MS analysis

[18] = biological target: RAC-alpha serine/threonine-protein kinase (Homo sapiens, UniProt P31749); experiment: Inhibition of AKT (unknown origin)
[19] = Oral bioavailability in C57BL/6 mouse at 10 mg/kg; format: ADME, organism-based; conditions: in vivo
[20] = Unbound AUC in C57BL/6 mouse plasma at 10 mg/kg, po by LC-MS/MS analysis; format: ADME, organism-based; conditions: in vivo
Cytochrome P450 1A2 = biological target: T2, Cytochrome P450 1A2 (Homo sapiens, UniProt P05177); experiment: Time dependent inhibition of CYP1A2 in pooled human liver microsomes using […] as substrate preincubated for 30 mins in presence of NADPH followed by substrate addition and measured after 10 mins by LC-MS/MS analysis; format: ADME, Microsome
T2 sequence (P05177 whole entry): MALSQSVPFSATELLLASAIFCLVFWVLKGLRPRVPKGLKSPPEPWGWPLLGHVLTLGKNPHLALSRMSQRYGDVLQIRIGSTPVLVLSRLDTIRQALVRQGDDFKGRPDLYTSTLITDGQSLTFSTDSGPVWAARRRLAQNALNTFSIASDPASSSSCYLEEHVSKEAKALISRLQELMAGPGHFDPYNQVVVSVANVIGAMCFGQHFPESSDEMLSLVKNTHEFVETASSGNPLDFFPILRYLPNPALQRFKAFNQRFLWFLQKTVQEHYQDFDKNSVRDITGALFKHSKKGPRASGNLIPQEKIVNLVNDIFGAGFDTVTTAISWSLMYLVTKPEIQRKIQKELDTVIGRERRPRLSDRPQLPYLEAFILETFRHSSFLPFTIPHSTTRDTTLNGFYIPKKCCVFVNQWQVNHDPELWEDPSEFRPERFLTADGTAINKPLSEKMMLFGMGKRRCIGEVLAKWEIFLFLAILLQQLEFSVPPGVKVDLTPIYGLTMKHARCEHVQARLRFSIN

[21] = Unbound AUC in C57BL/6 mouse brain at 10 mg/kg, po by LC-MS/MS analysis; format: ADME, organism-based; conditions: in vivo
[22] = Clearance in C57BL/6 mouse plasma at 2 mg/kg, iv; format: ADME, organism-based
[23] = Ratio of unbound AUC in C57BL/6 mouse brain at 10 mg/kg, po to IC50 for Inhibition of ROCK in rat A7r5 cells; format: organism-based; conditions: in vivo
[24] = Hepatic extraction ratio in C57BL/6 mouse at 2 mg/kg, iv; format: ADME, organism-based; conditions: in vivo, read-out: ERH

Rho-associated protein kinase 2, sequence (O75116 whole entry, the tested form may be a part): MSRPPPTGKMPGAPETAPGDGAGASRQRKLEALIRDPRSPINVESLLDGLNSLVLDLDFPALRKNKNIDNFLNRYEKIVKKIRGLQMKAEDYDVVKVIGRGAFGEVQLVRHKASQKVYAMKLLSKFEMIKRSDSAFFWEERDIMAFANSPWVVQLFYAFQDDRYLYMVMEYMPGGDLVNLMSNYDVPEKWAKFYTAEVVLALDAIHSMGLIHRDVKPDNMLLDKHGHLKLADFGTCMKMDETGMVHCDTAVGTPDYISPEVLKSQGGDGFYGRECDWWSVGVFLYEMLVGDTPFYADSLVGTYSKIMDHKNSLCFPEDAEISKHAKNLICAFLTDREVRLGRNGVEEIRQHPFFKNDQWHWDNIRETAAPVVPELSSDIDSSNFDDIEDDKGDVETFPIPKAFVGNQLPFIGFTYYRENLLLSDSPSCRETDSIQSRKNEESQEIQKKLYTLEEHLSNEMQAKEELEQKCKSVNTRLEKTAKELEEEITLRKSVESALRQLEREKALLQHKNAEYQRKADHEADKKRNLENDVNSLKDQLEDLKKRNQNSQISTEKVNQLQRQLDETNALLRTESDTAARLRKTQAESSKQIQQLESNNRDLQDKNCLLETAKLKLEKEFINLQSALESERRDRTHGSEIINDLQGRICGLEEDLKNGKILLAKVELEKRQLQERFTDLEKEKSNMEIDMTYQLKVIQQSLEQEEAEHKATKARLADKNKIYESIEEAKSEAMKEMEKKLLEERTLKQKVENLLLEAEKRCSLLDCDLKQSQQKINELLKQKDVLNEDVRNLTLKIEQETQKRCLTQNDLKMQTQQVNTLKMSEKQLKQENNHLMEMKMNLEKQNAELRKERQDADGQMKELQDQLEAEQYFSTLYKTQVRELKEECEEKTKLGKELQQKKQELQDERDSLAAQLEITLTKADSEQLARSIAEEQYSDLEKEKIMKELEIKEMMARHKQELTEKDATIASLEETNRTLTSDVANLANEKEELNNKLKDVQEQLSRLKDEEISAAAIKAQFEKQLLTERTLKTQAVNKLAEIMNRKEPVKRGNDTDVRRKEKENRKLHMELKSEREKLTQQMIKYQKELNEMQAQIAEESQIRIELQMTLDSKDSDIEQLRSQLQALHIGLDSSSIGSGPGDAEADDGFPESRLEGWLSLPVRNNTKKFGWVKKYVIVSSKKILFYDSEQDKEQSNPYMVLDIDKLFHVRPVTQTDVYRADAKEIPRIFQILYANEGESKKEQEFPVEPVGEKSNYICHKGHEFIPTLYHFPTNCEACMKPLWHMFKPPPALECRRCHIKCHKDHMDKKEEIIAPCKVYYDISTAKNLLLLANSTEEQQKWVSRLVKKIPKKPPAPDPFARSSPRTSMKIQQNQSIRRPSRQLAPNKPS
RAC-alpha serine/threonine-protein kinase, sequence (P31749 whole entry): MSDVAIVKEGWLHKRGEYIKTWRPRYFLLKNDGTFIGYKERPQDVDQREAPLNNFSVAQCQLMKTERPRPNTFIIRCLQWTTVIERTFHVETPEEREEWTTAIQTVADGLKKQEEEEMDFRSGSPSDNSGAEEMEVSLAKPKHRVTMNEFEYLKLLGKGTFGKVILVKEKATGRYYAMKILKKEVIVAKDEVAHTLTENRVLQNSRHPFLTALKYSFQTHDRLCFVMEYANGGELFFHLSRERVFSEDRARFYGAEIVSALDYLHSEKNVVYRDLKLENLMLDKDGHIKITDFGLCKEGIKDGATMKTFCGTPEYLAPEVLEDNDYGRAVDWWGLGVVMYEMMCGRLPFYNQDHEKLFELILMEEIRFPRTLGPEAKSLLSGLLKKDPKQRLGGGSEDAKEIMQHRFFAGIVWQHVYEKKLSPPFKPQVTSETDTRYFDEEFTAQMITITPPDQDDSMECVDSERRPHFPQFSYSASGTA
LIM domain kinase 2, sequence (P53671 whole entry, the tested form may be a part): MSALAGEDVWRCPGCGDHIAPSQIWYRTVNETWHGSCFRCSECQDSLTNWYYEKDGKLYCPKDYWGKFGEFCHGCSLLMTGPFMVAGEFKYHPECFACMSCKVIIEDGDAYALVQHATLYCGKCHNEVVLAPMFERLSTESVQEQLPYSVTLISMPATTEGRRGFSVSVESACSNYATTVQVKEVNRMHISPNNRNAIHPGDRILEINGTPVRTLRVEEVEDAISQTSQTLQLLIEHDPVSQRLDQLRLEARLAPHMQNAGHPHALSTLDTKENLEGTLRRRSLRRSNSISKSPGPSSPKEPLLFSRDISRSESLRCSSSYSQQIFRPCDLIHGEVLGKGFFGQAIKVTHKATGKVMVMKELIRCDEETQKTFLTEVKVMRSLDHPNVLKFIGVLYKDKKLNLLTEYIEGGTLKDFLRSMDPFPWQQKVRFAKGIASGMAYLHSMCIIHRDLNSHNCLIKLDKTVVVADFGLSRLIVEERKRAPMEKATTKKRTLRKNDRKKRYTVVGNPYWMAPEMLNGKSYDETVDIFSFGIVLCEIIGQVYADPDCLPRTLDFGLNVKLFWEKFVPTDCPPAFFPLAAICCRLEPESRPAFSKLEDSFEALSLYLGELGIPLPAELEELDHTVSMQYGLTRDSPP

| SMILES | IC50 [2] [nM] | IC50 [4] [nM] | IC50 [8] [nM] | CLint scaled at 1 µM [13] [mL/min/kg] | chromatographic logD [14] | Papp at 1 h, 10 µM [15] [×10⁻⁶ cm/s] | logP [16] | solubility kinetic at 2 h [17] [µM] | efflux ratio at 1 h, 10 µM (MDR1) | also measured |
| --- | --- | --- | --- | --- | --- | --- | --- | --- | --- | --- |
| COc1cccc([C@@H](C)NC(=O)N2CCN(c3ccncc3F)C[C@H]2C)c1 | 3 | 2250 | 8 |  |  |  |  |  |  | inhibition (Mus musculus [1]): Dde; inhibition (Mus musculus [3]): Tde; EC50 [5]: 28 nM; IC50 [6]: 14 nM; T (Mus musculus [7]): 2.5 °C; Activity (Mus musculus [9]): 59.5 mmHg; Activity (Mus musculus [10]): 61 mmHg; IC50 (LIM domain kinase 2): 25 nM; Activity (Mus musculus [11]): 107 bpm; Activity (Mus musculus [12]): 56.4 mmHg |
| C[C@@H]1CN(c2ccncc2F)CCN1C(=O)N[C@H](C)c1cccn2nccc12 | 2 | 6650 | 14 | 169 | 1.6 | 104 | 2.1 | > 200 | 3.7 |  |
| COc1cccc([C@@H](C)NC(=O)c2ccc(-c3ccnc(F)c3)cc2)c1 |  | 17 | 77 |  |  |  |  |  |  | IC50 [18]: 2370 nM |
| COc1cccc([C@@H](C)NC(=O)N2CCN(c3ccncc3F)C[C@H]2C)c1F |  | 50900 | 323 | 79 | 2.3 | 79.7 | 2.6 | 150 (≈ 58.6 µg/mL) | 1.3 |  |
| COc1cccc([C@@H](C)NC(=O)N2CCN(c3ccnc(F)c3)C[C@H]2C)c1 | 6 | 18900 | 122 | 103 |  | 58.1 |  | 170 (≈ 63.3 µg/mL) | 2.8 | bioavailability [19]: 36%; fAUC [20]: 100 nM·kg·h/mg; IC50 (Cytochrome P450 1A2): > 10000 nM; fAUC [21]: 30 nM·kg·h/mg; Ratio [23]: 0.2; hepatic extraction ratio [24]: 0.31; clearance [22]: 28.3 mL/min/kg |

Now from value to compound, other results behind:

| IC50 [2] [nM] | IC50 [4] [nM] | IC50 [8] [nM] | CLint scaled at 1 µM [13] [mL/min/kg] | chromatographic logD [14] | Papp at 1 h, 10 µM [15] [×10⁻⁶ cm/s] | logP [16] | solubility kinetic at 2 h [17] [µM] | efflux ratio at 1 h, 10 µM (MDR1) | SMILES | also measured |
| --- | --- | --- | --- | --- | --- | --- | --- | --- | --- | --- |
|  | 1700 | 15 | < 65 | 2.4 | 98.4 | 2.7 | 140 (≈ 54.7 µg/mL) |  | COc1cc(F)cc([C@@H](C)NC(=O)N2CCN(c3ccncc3F)C[C@H]2C)c1 | bioavailability [19]: 78%; fAUC [20]: 30 nM·kg·h/mg; IC50 (Cytochrome P450 1A2): 1100 nM; fAUC [21]: 40 nM·kg·h/mg; clearance [22]: 85 mL/min/kg |
| 26 | 320 | 290 |  |  |  |  |  |  | COc1cccc([C@@H](C)NC(=O)c2ccc(-c3ccnc(F)c3)nc2)c1 | EC50 [5]: 3210 nM; IC50 [6]: 1870 nM; IC50 [18]: 9260 nM |
